Measurements taken from article PMC11501026, “L-Arginine and asymmetric dimethylarginine (ADMA) transport across the mouse blood-brain and blood-CSF barriers: Evidence of saturable transport at both interfaces and CNS to blood efflux” (PLOS ONE, 2024).
Where “and” joins values, the source holds several entries; their conditions need not be identical. Equal values may be shown once.

What was measured:
[1] = test system: [3H]-ADMA transport across the blood-brain and blood-CSF barriers; test: self-inhibition, in situ perfusion: [^3H]-ADMA with 100 μM unlabelled ADMA; format: in vivo, mouse; conditions: male, Balb/c, mouse, other: in situ brain perfusion, with unlabelled ADMA 100 µM, [3H] ADMA + [14C] Sucrose + 100uM un-labelled ADMA, 10 mins, Balb/c ♂, 5ml/min, mean
Method: (§1) Self-inhibition experiments were also performed. […] Cross-competition experiments were also performed.
(§2) The percentage change in the RTissue uptake values achieved in the absence or presence of an unlabelled inhibitor can be calculated by means of Eq 4.
(§3) %change=RTissue−RInhibition/RTissue×100 Eq 4
(§4) We define RInhibition as the RTissue uptake in the presence of an inhibitor in the artificial plasma.
(§5) A decrease in the uptake of radiolabelled solute in the presence of unlabelled inhibitor is indicative of a saturable influx transport system. Conversely, an increase in the uptake of radiolabelled solute in the presence of unlabelled inhibitor is indicative of a saturable efflux transport system.

[2] = in situ brain/choroid plexus perfusion: CNS uptake of [^3H]-arginine, [^3H]-ADMA and [^14C]-sucrose (multiple-time and single-time uptake analysis); conditions: for Kp at 30 min / Kp at 20 min: male, BALB/c, mouse, in vivo; for Kp at 20 min: tissue or CSF to plasma ratio (mean), uncorrected, given as fraction
[3] = test system: [^3H]-ADMA transport across the blood-brain and blood-CSF barriers; test: cross-inhibition, in situ perfusion: [^3H]-ADMA with 100 μM unlabelled L-arginine; format: in vivo, mouse; conditions: [3H] ADMA + [14C] Sucrose + 100uM Arg, 10 mins, Balb/c ♂, 5ml/min; individual mice
Method: as §1, §2, §3, §4, §5

[4] = as above; format: in vivo, mouse; conditions: male, Balb/c, mouse, brain homogenate, other: in situ brain perfusion, with 100 µM unlabelled L-arginine, [3H] ADMA + [14C] Sucrose + 100uM Arg, 10 mins, Balb/c ♂, 5ml/min; mean; read-out: uptake, homogenate
Method: as §1, §2, §3, §4, §5

[5] = test system: [3H]-ADMA transport across the blood-brain and blood-CSF barriers; test: as above; format: in vivo, mouse; conditions: male, Balb/c, mouse, other: in situ brain perfusion, with 100 µM unlabelled L-arginine, [3H] ADMA + [14C] Sucrose + 100uM Arg, 10 mins, Balb/c ♂, 5ml/min
Method: as §1, §2, §3, §4, §5

For OC[C@H]1O[C@@](CO)(O[C@H]2O[C@H](CO)[C@@H](O)[C@H](O)[C@H]2O)[C@@H](O)[C@@H]1O [[^14C]-sucrose, reference compound], the Kp at 10 min, 62.5 nM ([1]; CSF, read-out: uptake into CSF) was 0.138, the Kp at 10 min, 62.5 nM ([1]; pituitary gland, read-out: uptake into pituitary gland) was 0.0955 and the “pineal gland: [14C] Sucrose” value ([2]; 30 mins, Balb/c ♂, 5ml/min, single mouse) was 0.7704 and 1.659 and 1.346. The Kp at 30 min ([2]; caudate nucleus: [14C] Sucrose, 30 mins, Balb/c ♂, 5ml/min, mean) was 0.0778, the Kp at 30 min ([2]; cerebellum: [14C] Sucrose, 30 mins, Balb/c ♂, 5ml/min, mean) was 0.059 and the Kp at 30 min ([2]; cerebellum: [14C] Sucrose, 30 mins, Balb/c ♂, 5ml/min, single mouse) was 0.0613. It also gave a Kp at 30 min ([2]; pineal gland: [14C] Sucrose, 30 mins, Balb/c ♂, 5ml/min, mean) of 1.05, a Kp at 30 min ([2]; pons: [14C] Sucrose, 30 mins, Balb/c ♂, 5ml/min, mean) of 0.124 and a Kp at 30 min ([2]; thalamus: [14C] Sucrose, 30 mins, Balb/c ♂, 5ml/min, mean) of 0.0965. The Kp at 20 min ([2]; caudate nucleus) was 0.0663, the Kp at 20 min ([2]; cerebellum) was 0.0456 and the Kp at 20 min ([2]; frontal cortex) was 0.0797. For the same compound, the Kp at 20 min ([2]; hippocampus) was 0.0477, the Kp at 20 min ([2]; hypothalamus) was 0.0657 and the Kp at 20 min ([2]; pineal gland) was 0.524. The Kp at 20 min ([2]; pons) was 0.118, the Kp at 20 min ([2]; thalamus) was 0.0672 and the “uptake, pellet” value [3] was 0.001402. For the same compound, the Kp at 10 min, 62.5 nM [4] was 0.0365, the Kp at 10 min, 62.5 nM ([5]; choroid plexus, individual mice, read-out: uptake into choroid plexus) was 0.14 and the Kp at 10 min, 62.5 nM ([5]; choroid plexus, mean, read-out: uptake into choroid plexus) was 0.145. The Kp at 10 min, 62.5 nM ([5]; hypothalamus, mean, read-out: uptake into hypothalamus) was 0.0327, the Kp at 10 min, 62.5 nM ([5]; pituitary gland, mean, read-out: uptake into pituitary gland) was 0.113 and the Kp at 10 min, 62.5 nM ([5]; pons, mean, read-out: uptake into pons) was 0.0462.
